# Test results published in ChEMBL document CHEMBL5244229, “Thiazole-containing compounds as therapeutic targets for cancer therapy” (Eur J Med Chem, 2020).
# What was measured:
# [1] = test system: MCF7; assay: Cytotoxicity against human MCF7 cells; assay type: functional, cell-based
# [2] = test system: K562; assay: Anticancer activity against human K562 cells; assay type: functional, cell-based
# [3] = test system: MV4-11; assay: Anticancer activity against human MV4-11 cells; assay type: functional, cell-based
# [4] = test system: HCT-116; assay: Anticancer activity against human HCT-116 cells; assay type: functional, cell-based
# [5] = test system: HepG2; assay: Cytotoxicity against human HepG2 cells; assay type: functional, cell-based
# [6] = target: Epidermal growth factor receptor (Homo sapiens, UniProt P00533); assay: Inhibition of EGFR (unknown origin)
# [7] = test system: Colon cell line; assay: Cytotoxicity against human Colon cell line; assay type: functional, cell-based
# [8] = test system: HepG2; assay: Cytotoxicity against human HepG2 cells assessed as reduction in cell viability measured after 48 hrs by MTS assay; assay type: functional, cell-based; settings: HepG2, 48 h
# [9] = test system: HepG2; assay: Anticancer activity against human HepG2 cells; assay type: functional, cell-based
# [10] = test system: SNU-638; assay: Cytotoxicity against human SNU-638 cells; assay type: functional, cell-based
# [11] = test system: MKN-74; assay: Cytotoxicity against human MKN-74 cells; assay type: functional, cell-based
# [12] = Cytotoxicity against human SNU-216 cells; assay type: functional, cell-based
# [13] = test system: AGS; assay: Cytotoxicity against human AGS cells; assay type: functional, cell-based
# [14] = test system: Hep 3B2; assay: Cytotoxicity against human Hep3B cells; assay type: functional, cell-based
# [15] = test system: SK-HEP1; assay: Cytotoxicity against human SK-HEP1 cells; assay type: functional, cell-based
# [16] = test system: MDA-MB-435; assay: Cytotoxicity against human MDA-MB-435 cells; assay type: functional, cell-based
# [17] = test system: HeLa; assay: Cytotoxicity against human HeLa cells; assay type: functional, cell-based
# [18] = test system: HepG2; assay: Cytotoxicity against human HepG2 cells assessed as reduction in cell viability incubated for 24 hrs by WST-1 assay; assay type: functional, cell-based; settings: HepG2, 24 h
# [19] = test system: SMMC-7721; assay: Cytotoxicity against human SMMC-7721 cells; assay type: functional, cell-based
# [20] = test system: HCT-116; assay: Antiproliferative activity against human HCT-116 cells assessed as reduction in cell viability; assay type: functional, cell-based
# [21] = test system: A549; assay: Antiproliferative activity against human A549 cells; assay type: functional, cell-based
# [22] = test system: HEK293; assay: Antiproliferative activity against human HEK293 cells; assay type: functional
# [23] = test system: HepG2; assay: Antitumor activity against human HepG2 cells; assay type: functional, cell-based
# [24] = test system: MCF7; assay: Antitumor activity against human MCF7 cells; assay type: functional, cell-based
# [25] = test system: MCF7; assay: Anticancer activity against human MCF7 cells; assay type: functional, cell-based
# Sequence of Epidermal growth factor receptor (P00533 whole entry): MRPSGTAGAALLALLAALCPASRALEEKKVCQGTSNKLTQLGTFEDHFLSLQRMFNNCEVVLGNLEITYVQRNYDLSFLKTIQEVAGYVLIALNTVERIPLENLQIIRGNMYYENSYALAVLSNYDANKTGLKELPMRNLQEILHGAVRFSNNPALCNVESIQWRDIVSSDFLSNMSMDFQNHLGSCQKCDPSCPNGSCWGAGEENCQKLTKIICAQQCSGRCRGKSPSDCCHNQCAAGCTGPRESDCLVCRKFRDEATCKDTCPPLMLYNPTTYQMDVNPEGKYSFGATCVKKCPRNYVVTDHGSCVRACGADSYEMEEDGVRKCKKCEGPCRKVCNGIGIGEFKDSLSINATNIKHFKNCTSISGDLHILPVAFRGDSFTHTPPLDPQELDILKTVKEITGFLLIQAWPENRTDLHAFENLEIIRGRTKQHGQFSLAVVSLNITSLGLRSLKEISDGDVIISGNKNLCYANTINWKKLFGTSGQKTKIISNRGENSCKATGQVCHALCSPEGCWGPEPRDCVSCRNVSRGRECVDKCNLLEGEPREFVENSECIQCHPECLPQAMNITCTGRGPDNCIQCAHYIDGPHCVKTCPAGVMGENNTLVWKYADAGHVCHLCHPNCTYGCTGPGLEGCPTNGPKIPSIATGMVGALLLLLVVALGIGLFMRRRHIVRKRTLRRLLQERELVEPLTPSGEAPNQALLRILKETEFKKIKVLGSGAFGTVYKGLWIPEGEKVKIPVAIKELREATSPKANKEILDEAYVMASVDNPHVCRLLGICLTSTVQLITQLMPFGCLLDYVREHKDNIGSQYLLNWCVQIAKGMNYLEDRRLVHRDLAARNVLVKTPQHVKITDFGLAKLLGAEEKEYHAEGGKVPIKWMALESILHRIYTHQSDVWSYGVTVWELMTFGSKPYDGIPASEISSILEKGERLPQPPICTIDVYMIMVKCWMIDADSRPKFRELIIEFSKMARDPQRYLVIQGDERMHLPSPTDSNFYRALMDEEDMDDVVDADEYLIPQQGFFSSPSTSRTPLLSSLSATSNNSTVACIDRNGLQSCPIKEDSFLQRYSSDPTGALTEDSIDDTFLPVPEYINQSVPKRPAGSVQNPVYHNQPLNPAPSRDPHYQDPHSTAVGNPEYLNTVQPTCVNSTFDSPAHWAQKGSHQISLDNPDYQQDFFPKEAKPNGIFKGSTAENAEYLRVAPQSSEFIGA
structure (smiles),measurement,setting,value
O=S(=O)(O)c1ccc(/N=N/C(=N\c2nc(-c3ccccc3)cs2)c2cc3ccccc3nc2Cl)cc1,IC50,[1],16000 nM
same,IC50,[2],13000 nM
CC(=O)Nc1ccc(NC(=O)/C(C#N)=C2\SC=C(c3ccccc3)N2c2ccccc2)cc1,IC50,[1],9.3 µg/mL
O=S(=O)(Nc1ccc(-c2csc(N/N=C/c3ccc(N(CCCl)CCCl)cc3)n2)cc1)c1ccc(F)cc1,IC50,[3],2170 nM
same,IC50,[4],3.02 µg/mL
Cc1nc(C(Cl)(Cl)S(=O)(=O)c2ccc(Br)cc2)c([N+](=O)[O-])s1,CC50,[5],< 2500 nM
FC(F)(F)c1ccc(/C=N/Nc2nc(-c3ccc(Cl)cc3Cl)cs2)cc1,IC50,[6],5480 nM
O=C1NC(=O)/C(=C/c2ccccc2Cl)S1,IC,[7],10 µg/mL
Cc1nc(C(Cl)(Cl)S(=O)(=O)c2ccccc2)c([N+](=O)[O-])s1,CC50,[5],< 2500 nM
COc1ccc(/C=C(/C#N)c2nc(-c3cc4ccccc4oc3=O)cs2)cc1,IC50,[8],2330 nM
C/C(=N\NC(=O)c1sc(-c2ccccc2)nc1C)C1=NN(C)C(/N=N/C(=O)c2sc(-c3ccccc3)nc2-c2ccc(C)cc2)C1 (stereo not given),IC50,[9],1.61 µg/mL
C=C(NC(=O)C(=C)NC(=O)c1csc(C2=N[C@@H]3c4csc(n4)[C@H]4NC(=O)c5csc(n5)[C@H]([C@](C)(O)[C@@H](C)O)NC(=O)[C@H]5CSC(=N5)/C(=C/C)NC(=O)[C@H]([C@@H](C)O)NC(=O)c5csc(n5)[C@]3(CC2)NC(=O)[C@H](C)NC(=O)C(=C)NC(=O)[C@H](C)NC(=O)[C@H]([C@@H](C)CC)N[C@@H]2C=Cc3c([C@H](C)O)cc(nc3[C@H]2O)C(=O)O[C@@H]4C)n1)C(N)=O [THIOSTREPTON],IC50,[5],710 nM
same,IC50,[10],300 nM
same,IC50,[11],4200 nM
same,IC50,[12],410 nM
same,IC50,[13],400 nM
same,IC50,[14],820 nM
same,IC50,[15],740 nM
CC(C)=NNc1nc(-c2ccc(Cl)cc2)cs1,IC50,[6],2000 nM
Nc1nc(-c2ccc(Oc3ccc(Cl)c(Cl)c3)cc2)cs1,IC50,[16],759 nM
COc1cccc2c1C(=O)c1c(O)c3c(c(O)c1C2=O)C[C@@](O)(C(=O)CO)C[C@@H]3O[C@H]1C[C@H](N)[C@H](O)[C@H](C)O1.Cl [DOXORUBICIN HYDROCHLORIDE],GI50,[17],< 80 µg/mL
COc1ccc(/N=N/c2sc(N/N=C(/C)c3sc(N)nc3C)nc2C)cc1,IC50,[18],500 nM
Cc1nc(N2N=C(c3cccs3)CC2c2ccc(C3CC(c4cccs4)=NN3c3nc(C)c(/N=N/c4ccc([N+](=O)[O-])cc4)s3)cc2)sc1/N=N/c1ccc([N+](=O)[O-])cc1 (stereo not given),IC50,[8],1370 nM
same,IC50,[9],150 nM
same,IC50,[4],1370 nM
same,IC50,[2],20 nM
same,IC50,[19],3000 nM
Cc1nc(C(Cl)(Cl)S(=O)(=O)c2ccc(Cl)cc2)c([N+](=O)[O-])s1,CC50,[5],< 2500 nM
CCCCCCCC(=O)SCC/C=C/[C@@H]1CC(=O)NCc2nc(cs2)C2=N[C@@](C)(CS2)C(=O)N[C@@H](C(C)C)C(=O)O1 [LARGAZOLE],IC50,[20],390 nM
same,GI50,[21],1460 nM
same,GI50,[22],> 100000 nM
C/C=C1\NC(=O)[C@H]([C@@H](C)O)NC(=O)c2csc(n2)-c2ccc(-c3nc(-c4nc(C(=O)N/C(=C/C)C(=O)NC[C@H](C)O)cs4)cs3)nc2-c2csc(n2)[C@H]([C@@H](C)O)NC(=O)c2csc(n2)[C@H](C(C)C)NC(=O)c2csc1n2,IC50,[5],910 nM
same,IC50,[10],410 nM
same,IC50,[11],7300 nM
same,IC50,[12],440 nM
same,IC50,[13],500 nM
same,IC50,[14],940 nM
same,IC50,[15],830 nM
O=C1N/C(=N/c2ccc(-c3nc4ccccc4s3)cc2)S/C1=C/c1ccc([N+](=O)[O-])cc1,IC50,[23],36 nM
same,IC50,[24],48 nM
COc1cc(C(=O)c2csc(-c3ccc4[nH]ccc4c3)n2)cc(OC)c1OC,IC50,[6],8 nM
COc1ccc(-c2csc(NC(=O)CN3CCc4ccccc4C3)n2)cc1,LC50,"[7]; Homo sapiens, Colon cell line",28 µg/mL
CC(=O)Nc1ccc(NC(=O)/C(C#N)=C2\SC=C(C)N2c2ccccc2)cc1,IC50,[1],6.9 µg/mL
Cc1ccc(-c2nc(C(=O)Nc3cccc(Cl)c3)cs2)cc1,IC50,[9],11600 nM
O=C1N/C(=N/c2ccc(-c3nc4ccccc4o3)cc2)S/C1=C/c1ccc(Cl)cc1,IC50,[24],19 nM
COc1cc(C(=NC#N)c2csc(-c3ccccc3)n2)cc(OC)c1OC,IC50,[6],20 nM
C/C(=N/Nc1nc(C)c(/N=N/c2ccc(Cl)cc2)s1)c1sc(N)nc1C,IC50,[18],520 nM
C/C(=N/Nc1nc(C)c(/N=N/c2ccccc2)s1)c1sc(N)nc1C,IC50,[18],840 nM
C=C(NC(=O)C(=C)NC(=O)c1csc(C2=N[C@@H]3c4csc(n4)[C@H]4NC(=O)c5csc(n5)C([C@](C)(O)[C@@H](C)O)NC(=O)[C@H]5CSC(=N5)/C(=C/C)NC(=O)C([C@@H](C)O)NC(=O)c5csc(n5)[C@]3(CC2)NC(=O)[C@H](C)NC(=O)C(=C)NC(=O)C(=C)NC(=O)[C@H](C(C)C)N[C@H]2C=Cc3c([C@H](C)O)cc(nc3[C@H]2O)C(=O)O[C@@H]4C)n1)C(N)=O (stereo not given in full),IC50,[5],1300 nM
same,IC50,[10],910 nM
same,IC50,[11],6210 nM
same,IC50,[12],750 nM
same,IC50,[13],710 nM
same,IC50,[14],1900 nM
same,IC50,[15],1600 nM
Cc1ccc(-c2nc(C(=O)Nc3ccc([N+](=O)[O-])cc3)cs2)cc1,IC50,[9],10800 nM
same,IC50,"[7]; Homo sapiens, Colon cell line",10800 nM
C/C(=N/Nc1nc(C)c(/N=N/c2ccccc2)s1)c1nnn(-c2ccccc2)c1C,IC50,[23],3410 nM
same,IC50,[24],1120 nM
C/C=C1\NC(=O)[C@H]([C@@H](C)O)NC(=O)c2csc(n2)-c2ccc(-c3nc(-c4nc(C(=O)N/C(=C/C)C(=O)NC[C@@H](C)O)cs4)cs3)nc2-c2csc(n2)[C@H]([C@@H](C)O)NC(=O)c2csc(n2)[C@H](C(C)(C)O)NC(=O)c2csc1n2,IC50,[5],1340 nM
same,IC50,[10],990 nM
same,IC50,[11],11000 nM
same,IC50,[12],7500 nM
same,IC50,[13],1430 nM
same,IC50,[14],2340 nM
same,IC50,[15],2120 nM
C/C(=N/N=c1/[nH]c(-c2ccccc2)c(/N=N/c2ccccc2)s1)[C@H]1CC[C@H]2[C@@H]3CCC4=CC(=O)CC[C@]4(C)[C@H]3CC[C@]12C,IC50,[25],5280 nM
CC/C(=C(\c1ccccc1)c1ccc(OCCN(C)C)cc1)c1ccccc1 [TAMOXIFEN],IC50,[25],3530 nM
CCOC(=O)c1nn(-c2ccc(Cl)cc2Cl)/c(=N/NC(=O)c2sc(-c3ccccc3)nc2C)s1,IC50,[23],820 nM
COc1ccc(S(=O)(=O)Nc2ccc(-c3csc(N/N=C/c4ccc(N(CCCl)CCCl)cc4)n3)cc2)cc1,IC50,[3],2170 nM
same,IC50,[4],3.02 µg/mL
N#Cc1ccc(S(=O)(=O)Nc2ccc(-c3csc(N/N=C/c4ccc(N(CCCl)CCCl)cc4)n3)cc2)cc1,IC50,[3],2170 nM
same,IC50,[4],3.02 µg/mL
Cc1ccc(S(=O)(=O)C(Cl)(Cl)c2nc(C)sc2[N+](=O)[O-])cc1,CC50,[5],< 2500 nM
same,CC50,"[7]; Homo sapiens, Colon cell line",1000 nM
O=C(NC1=NC2C(=O)NN=C(c3ccc(Br)cc3)C2S1)Nc1ccc(Cl)cc1 (stereo not given),IC50,[6],80 nM
CCCCCCCC(=O)SCC/C=C/[C@@H]1CC(=O)NCc2nc(cs2)C2=N[C@@](C)(CS2)C(=O)N[C@@H](c2ccccc2)C(=O)O1,IC50,[20],390 nM
same,GI50,[21],1460 nM
same,GI50,[22],> 100000 nM
C=C(NC(=O)C(=C)NC(=O)c1ccc2c(n1)-c1coc(n1)C(=O)NC(=O)CNC(=O)c1coc(n1)C(=C)NC(=O)[C@H](C(C)(C)O)NC(=O)C(=O)NC(=O)c1nc(oc1C)/C(=C\C)NC[C@H](C(C)C)NC(=O)c1csc-2n1)C(N)=O,IC50,[5],1300 nM
same,IC50,[10],750 nM
same,IC50,[11],2430 nM
same,IC50,[12],880 nM
same,IC50,[13],990 nM
same,IC50,[14],1040 nM
same,IC50,[15],990 nM
CC1=C(C(=O)Nc2nc(-c3ccccc3)cs2)C(c2ccc(Cl)cc2)C(C(=O)Nc2nc(-c3ccccc3)cs2)=C(C)N1,IC50,[17],2 nM
CCOC(=O)c1csc(NC(=S)Nc2ccc(Cl)cc2)n1,IC50,[6],10100 nM
C/C(=N/N=c1/[nH]c(C)c(/N=N/c2ccccc2)s1)[C@H]1CC[C@H]2[C@@H]3CCC4=CC(=O)CC[C@]4(C)[C@H]3CC[C@]12C,IC50,[25],8870 nM
Cc1nc(C(Cl)(Cl)S(=O)(=O)c2ccc(F)cc2)c([N+](=O)[O-])s1,CC50,[5],< 2500 nM
Cc1c(C(=O)Nc2ccccc2)s/c(=N\NC(=O)c2cnc(-c3ccccc3)s2)n1-c1ccccc1,IC50,[9],1.98 µg/mL
O=[N+]([O-])c1ccc(-c2nn(-c3nc(-c4ccc(Br)cc4)cs3)cc2/C=N/c2nc[nH]n2)cc1,GI50,[25],> 80 µg/mL
same,GI50,[17],1.2 µg/mL
CC1=C(C(=O)Nc2nc(-c3ccccc3)cs2)C(c2ccc([N+](=O)[O-])cc2)C(C(=O)Nc2nc(-c3ccccc3)cs2)=C(C)N1,IC50,[17],3 nM
COc1ccc(/C=C(/C#N)c2nc(-c3cc4ccccc4oc3=O)cs2)cc1OC,IC50,[8],2890 nM
